The text below walks through data of PMC9862037, “Interactions of Mycotoxin Alternariol with Cytochrome P450 Enzymes and OATP Transporters” (Metabolites, 2022).

The target in data set [1] is T1, CYP2C9 (Homo sapiens, UniProt P11712).
T1 construct: purchased Merck; host or cells: yeast (inferred from the description of the CYPnull control, 'processed identically')
As to the kind of experiment: biochemical. As to the method:
The potential inhibitory effects of AOH on CYP2C9, 2C19, 2D6, and 3A4 enzymes were tested in vitro employing CypExpress human kits, using the substrates recommended by the U.S. Food and Drug Administration (FDA; https://www.fda.gov/drugs/drug-interactions-labeling/drug-development-and-drug-interactions-table-substrates-inhibitors-and-inducers; accessed on 19 December 2022) (diclofenac, S-mephenytoin, dextromethorphan, and testosterone, respectively). […] In these assays, the substrates and products were quantified by HPLC-UV [28].
IC50 values were calculated by sigmoidal fitting (Hill1), using the Origin (version 2018, OriginLab Corporation, Northampton, MA, USA) software.
After CYP450 incubations, the product formation rate was investigated using an integrated HPLC system (Jasco, Tokyo, Japan) built up from an autosampler (AS-4050), a binary pump (PU-4180), and a UV detector (UV-975). Chromatographic data were evaluated employing ChromNAV2 software (Jasco, Tokyo, Japan). Quantitative determinations of 4′-hydroxydiclofenac and diclofenac (CYP2C9), 4-hydroxymephenytoin and mephenytoin (CYP2C19), dextromethorphan and dextrorphan (CYP2D6), as well as testosterone and 6β-hydroxytestosterone (CYP3A4) were carried out as previously reported, without modifications.

In the next data set the target is T2, CYP3A4 (Homo sapiens, UniProt P08684).
T2 construct: purchased Merck; host or cells: yeast (inferred from the description of the CYPnull control, 'processed identically')
T2 sequence (P08684 whole entry): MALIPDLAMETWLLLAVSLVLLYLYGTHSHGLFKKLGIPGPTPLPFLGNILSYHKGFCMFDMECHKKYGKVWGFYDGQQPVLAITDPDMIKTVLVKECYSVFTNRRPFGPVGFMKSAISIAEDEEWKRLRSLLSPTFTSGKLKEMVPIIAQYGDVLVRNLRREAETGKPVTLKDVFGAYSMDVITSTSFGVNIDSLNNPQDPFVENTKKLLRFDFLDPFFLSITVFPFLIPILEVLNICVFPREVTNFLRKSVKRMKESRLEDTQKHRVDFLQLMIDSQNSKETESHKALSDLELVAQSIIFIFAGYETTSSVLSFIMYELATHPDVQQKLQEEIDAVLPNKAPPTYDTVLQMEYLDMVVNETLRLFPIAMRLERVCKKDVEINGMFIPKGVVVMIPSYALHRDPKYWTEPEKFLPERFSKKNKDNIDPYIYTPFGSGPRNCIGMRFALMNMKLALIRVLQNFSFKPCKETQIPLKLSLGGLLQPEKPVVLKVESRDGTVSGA
The format is in vitro ADME. To be noted: 5 μM AOH; 120 min incubation; vs CYPnull. As to the method:
(§1) To test the potential biotransformation of AOH by CYPs, the changes in the concentrations of AOH were examined in the presence of CYP1A2, 2C9, 2C19, 2D6, or 3A4 enzymes. Samples (final volume: 200 μL) containing AOH (5 μM), glucose-6-phosphate (500 μM), nicotinamide adenine dinucleotide phosphate (NADP^+, 200 μM), and the enzymes (CypExpress Cytochrome P450 reagents: 15 mg/mL each; including both CYP and glucose-6-phosphate dehydrogenase enzymes) were incubated for 0, 30, 60, 90, and 120 min (700 rpm, 30 °C) in potassium phosphate buffer (0.05 M, pH 7.5). The reaction was stopped by the addition of ice-cold methanol (100 μL), then the samples were centrifuged (10 min, 14,000 g, room temperature). AOH content of the supernatants was directly analyzed by HPLC-FLD (see details in Section 2.7). As a control, CypExpress Control reagent (CYPnull; 15 mg/mL) was also applied, which is a permeabilized and stabilized dried yeast powder (produced using an empty vector) and processed identically to CypExpress Cytochrome P450 products.
(§2) In CYP experiments, AOH was quantified with the above-described HPLC system, except that a fluorescence detector (FP-920; Jasco, Tokyo, Japan) was applied. Samples (20 μL) were driven through a Phenomenex Security Guard (C18, 4.0 × 3.0 mm) precolumn (Phenomenex, Torrance, CA, USA) linked to a Kinetex EVO-C18 (250 × 4.6 mm, 5 μm; Phenomenex) analytical column with 1.0 mL/min flow rate, at room temperature. For the isocratic elution, a mobile phase with 1 mM phosphoric acid (pH 3.0) and acetonitrile (65:35 v/v%) was applied. AOH was detected at 455 nm (λex = 345 nm). Limit of detection (LOD) and limit of quantification (LOQ) were established as the lowest concentrations when the signal-to-noise ratios were three and ten, respectively. The major validation parameters of this HPLC-FLD method were the following: linearity (R^2 = 0.997, in the 100–1000 nM concentration range); LOD = 100 nM; LOQ = 200 nM; intraday precision = 2.9% (n = 7); accuracy = 3.4% (n = 7).

A further data set deals with T3, CYP2C19 (Homo sapiens, UniProt P33261).
T3 construct: purchased Merck; host or cells: yeast (inferred from the description of the CYPnull control, 'processed identically')
T3 sequence (P33261 whole entry): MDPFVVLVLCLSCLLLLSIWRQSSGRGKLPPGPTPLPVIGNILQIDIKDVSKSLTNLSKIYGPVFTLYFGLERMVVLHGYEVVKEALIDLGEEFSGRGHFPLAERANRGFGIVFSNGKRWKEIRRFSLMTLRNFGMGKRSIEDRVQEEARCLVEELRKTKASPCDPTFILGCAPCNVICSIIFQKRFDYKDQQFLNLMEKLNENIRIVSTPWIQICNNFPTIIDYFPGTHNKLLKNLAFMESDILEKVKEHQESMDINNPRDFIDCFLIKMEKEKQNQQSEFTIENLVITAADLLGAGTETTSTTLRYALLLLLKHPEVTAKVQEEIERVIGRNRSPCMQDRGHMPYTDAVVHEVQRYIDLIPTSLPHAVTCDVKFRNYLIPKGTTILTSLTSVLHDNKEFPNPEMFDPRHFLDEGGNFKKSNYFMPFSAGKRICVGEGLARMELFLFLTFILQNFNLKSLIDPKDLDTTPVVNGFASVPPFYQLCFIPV
The format is in vitro ADME. As to conditions: 5 μM AOH; significant (p < 0.01) only after 120 min. As for the experimental part: as §1, §2

The next data set deals with T4, CYP2D6 (Homo sapiens, UniProt P10635).
T4 construct: purchased Merck; host or cells: yeast (inferred from the description of the CYPnull control, 'processed identically')
T4 sequence (P10635 whole entry): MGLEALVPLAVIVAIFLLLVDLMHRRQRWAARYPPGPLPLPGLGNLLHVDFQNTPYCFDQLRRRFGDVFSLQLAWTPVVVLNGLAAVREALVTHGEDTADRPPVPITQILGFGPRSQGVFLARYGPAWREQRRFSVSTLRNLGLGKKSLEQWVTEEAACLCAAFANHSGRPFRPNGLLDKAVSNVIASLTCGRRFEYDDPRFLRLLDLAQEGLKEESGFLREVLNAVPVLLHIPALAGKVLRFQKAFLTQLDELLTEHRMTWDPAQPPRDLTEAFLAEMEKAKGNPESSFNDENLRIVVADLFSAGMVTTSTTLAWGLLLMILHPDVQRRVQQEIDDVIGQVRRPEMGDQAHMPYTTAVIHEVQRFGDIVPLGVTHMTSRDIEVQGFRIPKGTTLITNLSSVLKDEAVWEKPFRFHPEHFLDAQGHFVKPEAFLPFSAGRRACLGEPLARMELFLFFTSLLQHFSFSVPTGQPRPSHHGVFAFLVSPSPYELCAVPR
The format is in vitro ADME. As to conditions: 5 μM AOH; 120 min incubation; vs CYPnull. As to the method:
as §1, §2

The target in data set [2] is T1, CYP2C9. The format is in vitro ADME. As to conditions: 5 μM AOH; 120 min incubation; vs CYPnull. As for the experimental part:
as §1, §2

A further data set has as its target T5, CYP1A2 (Homo sapiens, UniProt P05177).
T5 construct: purchased Abcam ab211075
The format is in vitro ADME. As to conditions: 5 μM AOH. As to the method:
as §1, §2

Like-named read-outs stand apart in the source and are kept apart here. Where only a bound is given, the exact number is not on record here.

The term IC50 denotes the point on the concentration scale where inhibition reaches its midpoint.

T1 sequence (P11712 whole entry): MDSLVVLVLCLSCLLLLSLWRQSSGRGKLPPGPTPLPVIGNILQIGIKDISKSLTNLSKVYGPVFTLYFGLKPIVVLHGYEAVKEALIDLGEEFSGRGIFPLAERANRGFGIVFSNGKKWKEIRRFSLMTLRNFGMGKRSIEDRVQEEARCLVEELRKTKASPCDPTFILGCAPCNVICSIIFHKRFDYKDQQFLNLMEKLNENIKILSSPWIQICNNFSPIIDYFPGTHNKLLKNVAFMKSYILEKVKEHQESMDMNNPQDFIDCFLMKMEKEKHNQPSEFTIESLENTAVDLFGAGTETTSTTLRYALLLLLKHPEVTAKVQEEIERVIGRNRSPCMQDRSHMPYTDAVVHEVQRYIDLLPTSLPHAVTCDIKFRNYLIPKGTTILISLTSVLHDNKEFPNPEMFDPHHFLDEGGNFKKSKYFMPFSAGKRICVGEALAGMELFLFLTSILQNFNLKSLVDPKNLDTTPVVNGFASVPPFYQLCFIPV
T5 sequence (P05177 whole entry): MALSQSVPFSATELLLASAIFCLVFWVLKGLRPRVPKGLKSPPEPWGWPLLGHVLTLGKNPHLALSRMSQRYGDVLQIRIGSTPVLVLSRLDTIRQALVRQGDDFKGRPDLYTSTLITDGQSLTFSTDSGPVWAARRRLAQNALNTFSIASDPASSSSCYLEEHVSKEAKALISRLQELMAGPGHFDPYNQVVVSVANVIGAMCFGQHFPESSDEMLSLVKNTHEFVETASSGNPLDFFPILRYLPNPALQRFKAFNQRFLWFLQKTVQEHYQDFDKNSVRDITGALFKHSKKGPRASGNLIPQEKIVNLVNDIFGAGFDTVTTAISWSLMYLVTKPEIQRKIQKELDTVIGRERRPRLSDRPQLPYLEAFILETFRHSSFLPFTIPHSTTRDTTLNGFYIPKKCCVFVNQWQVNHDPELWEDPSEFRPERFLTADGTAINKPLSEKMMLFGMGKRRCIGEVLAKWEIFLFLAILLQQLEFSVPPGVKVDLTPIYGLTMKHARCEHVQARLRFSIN

`Cc1cc(O)cc2oc(=O)c3c(O)cc(O)cc3c12` [AOH, Alternariol]: the “decrease in the product formation (CYP2C9)” value at CYP2C9 [1] (50 μM AOH) is given as > 80%. Also, the IC50 at CYP2C9 [1] (diclofenac 4'-hydroxylation, read-out: IC50, CYP2C9 inhibition) came to 7.4 µM. Further, the “changes in AOH levels in the presence of CYP3A4” value at CYP3A4 is on record as “no relevant changes”. In addition, the “changes in AOH levels in the presence of CYP2C19” value at CYP2C19 is listed as “slight decrease”. For the same compound, at CYP2D6, the “changes in AOH levels in the presence of CYP2D6” value was “no relevant changes”. For the same compound, the “changes in AOH levels in the presence of CYP2C9” value at CYP2C9 [2] was “no relevant changes”. Further, the figures for the “depletion of AOH by CYP1A2” value at CYP1A2 (60 min incubation) and at CYP1A2 (120 min incubation) were 16% and 25%, respectively.
